Test results published in patent publication US7435846B2, “Absorption and bioavailability of carotenoids, formulations and applications” (Industrial Organica, S.A. De C.V., priority 2006, dated 2008).

Parameters: species or system human
Settings: in vivo
Description: Ten (10) healthy non smoking students (ranging in age from 22-27 years), were subjected to the following two treatments:
(A) Four (4) weeks of ingesting one gelatin capsule at their noonday meal, containing 20 mg of crystalline lutein dispersed in soybean oil and after a 12 hours fast (overnight) blood samples were taken early the next morning for plasma analysis.
(B) After a two (2) week interval washout period, the same group of subjects were given, during a period of four (4) weeks, a gelatin capsule containing a micellar dispersion of lutein diacetate (prepared as described in example 3) in soybean oil. Each capsule contained 24.2 mg of lutein diacetate and was ingested at lunch time. After a twelve (12) hour fast, blood samples were collected in the early morning of the next day for plasma analysis.

Substance: lutein diacetate
- ratio of the average absorption of the lutein diacetate divided by the average absorption of the free lutein: 2.81 times
